Experimental data reported in patent publication US7951829B2, “Benzimidazole modulators of VR1” (Janssen Pharmaceutica NV, priority 2006, dated 2011).

Molecular target: T1, hVR1 (Homo sapiens, UniProt Q8NER1)
T1 construct: expressed in transfected cells; host or cells: HEK293
Assay: Human VR1 (hVR1) Functional Assay (FLIPR intracellular calcium, capsaicin challenge)
Format: cell-based
Details: capsaicin 0.030 μM, HEK293 cells expressing hVR1; for inhibition at 1 µM: test concentration 1 μM

T1 sequence (Q8NER1 whole entry): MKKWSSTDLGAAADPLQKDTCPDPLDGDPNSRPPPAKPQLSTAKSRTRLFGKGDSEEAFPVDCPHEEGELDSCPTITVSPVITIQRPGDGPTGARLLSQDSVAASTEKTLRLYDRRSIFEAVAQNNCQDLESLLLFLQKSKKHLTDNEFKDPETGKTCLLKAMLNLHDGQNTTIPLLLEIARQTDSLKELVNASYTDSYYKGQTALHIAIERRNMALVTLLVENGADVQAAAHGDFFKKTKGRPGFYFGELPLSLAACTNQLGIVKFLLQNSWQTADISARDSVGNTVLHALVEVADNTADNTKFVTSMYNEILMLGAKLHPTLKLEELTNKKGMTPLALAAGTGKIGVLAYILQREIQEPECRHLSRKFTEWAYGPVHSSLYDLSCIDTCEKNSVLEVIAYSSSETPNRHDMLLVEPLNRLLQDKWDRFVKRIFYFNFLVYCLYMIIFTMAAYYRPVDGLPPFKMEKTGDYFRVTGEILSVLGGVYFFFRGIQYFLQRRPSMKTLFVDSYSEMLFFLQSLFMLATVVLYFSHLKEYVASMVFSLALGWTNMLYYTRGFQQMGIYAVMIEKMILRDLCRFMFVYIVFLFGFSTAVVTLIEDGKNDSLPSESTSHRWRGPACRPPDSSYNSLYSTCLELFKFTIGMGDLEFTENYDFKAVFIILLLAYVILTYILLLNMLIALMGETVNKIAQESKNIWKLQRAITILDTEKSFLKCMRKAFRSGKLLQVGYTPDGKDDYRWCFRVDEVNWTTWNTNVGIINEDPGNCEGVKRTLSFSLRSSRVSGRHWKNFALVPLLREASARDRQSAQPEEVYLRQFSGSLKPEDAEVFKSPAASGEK

| IC50 | inhibition at 1 µM | Structure (SMILES) |
| --- | --- | --- |
| 20 nM | 95% | NS(=O)(=O)c1ccccc1-c1ccc2[nH]c(CCc3cccc(C(F)(F)F)c3F)nc2c1 [Cpd 405, 2-{2-[2-(2-fluoro-3-trifluoromethyl-phenyl)-ethyl]-1H-benzimidazol-5-yl}-benzenesulfonamide] |
| 53 nM | 98% | NS(=O)(=O)c1ccccc1-c1ccc2[nH]c(/C=C/c3ccc(F)cc3C(F)(F)F)nc2c1 [Cpd 367, (E)-2-{2-[2-(4-fluoro-2-trifluoromethyl-phenyl)-vinyl]-1H-benzimidazol-5-yl}-benzenesulfonamide] |
| 7 nM | 98% | CS(=O)(=O)c1ccccc1-c1ccc2[nH]c(/C=C/c3ccc(C(F)(F)F)cc3)nc2c1 [Cpd 422, (E)-5-(2-methanesulfonyl-phenyl)-2-[2-(4-trifluoromethyl-phenyl)-vinyl]-1H-benzimidazole] |
| – | 21% | CN(C)Cc1ccccc1-c1ccc2[nH]c(/C=C/c3ccc(C(F)(F)F)cc3)nc2c1 [Cpd 483, (E)-dimethyl-(2-{2-[2-(4-trifluoromethyl-phenyl)-vinyl]-1H-benzimidazol-5-yl}-benzyl)-amine] |
| 23 nM | 97% | NS(=O)(=O)c1ccccc1-c1ccc2[nH]c(/C=C/c3ccc(F)c(Br)c3)nc2c1 [Cpd 439, (E)-2-{2-[2-(3-bromo-4-fluoro-phenyl)-vinyl]-1H-benzimidazol-5-yl}-benzenesulfonamide] |
| 24 nM | 97% | NS(=O)(=O)c1ccccc1-c1ccc2[nH]c(/C=C/c3ccc(Cl)cc3Cl)nc2c1 [Cpd 437, (E)-2-{2-[2-(2,4-dichloro-phenyl)-vinyl]-1H-benzimidazol-5-yl}-benzenesulfonamide] |
| 7 nM | 98% | NS(=O)(=O)c1ccccc1-c1ccc2[nH]c(CCc3ccc(F)c(F)c3F)nc2c1 [Cpd 384, 2-{2-[2-(2,3,4-trifluoro-phenyl)-ethyl]-1H-benzimidazol-5-yl}-benzenesulfonamide] |
| 10 nM | 100% | CC(C)(O)c1ccccc1-c1ccc2[nH]c(C3CC3c3ccc(C(F)(F)F)cc3)nc2c1 (stereo not shown) [Cpd 471, 2-(2-{2-[2-(4-trifluoromethyl-phenyl)-cyclopropyl]-1H-benzimidazol-5-yl}-phenyl)-propan-2-ol] |
| 43 nM | 96% | NS(=O)(=O)c1ccccc1-c1ccc2[nH]c(CCc3c(F)cccc3F)nc2c1 [Cpd 386, 2-{2-[2-(2,6-difluoro-phenyl)-ethyl]-1H-benzimidazol-5-yl}-benzenesulfonamide] |
| 13 nM | 99% | NS(=O)(=O)c1ccccc1-c1ccc2[nH]c(CCc3cc(F)cc(F)c3)nc2c1 [Cpd 396, 2-{2-[2-(3,5-difluoro-phenyl)-ethyl]-1H-benzimidazol-5-yl}-benzenesulfonamide] |
| 32 nM | 93% | NS(=O)(=O)c1ccccc1-c1ccc2[nH]c(CCc3ccccc3F)nc2c1 [Cpd 419, 2-{2-[2-(2-fluoro-phenyl)-ethyl]-1H-benzimidazol-5-yl}-benzenesulfonamide] |
| 9 nM | 99% | NS(=O)(=O)c1ccccc1-c1ccc2[nH]c(/C=C/c3ccc(F)c(F)c3)nc2c1 [Cpd 358, (E)-2-{2-[2-(3,4-difluoro-phenyl)-vinyl]-1H-benzimidazol-5-yl}-benzenesulfonamide] |
| 40 nM | 98% | CCOc1ccc(/C=C/c2nc3cc(-c4ccccc4S(N)(=O)=O)ccc3[nH]2)cc1 [Cpd 440, (E)-2-{2-[2-(4-ethoxy-phenyl)-vinyl]-1H-benzimidazol-5-yl}-benzenesulfonamide] |
| 15 nM | 98% | NS(=O)(=O)c1ccccc1-c1ccc2[nH]c(/C=C/c3ccc(F)c(Cl)c3)nc2c1 [Cpd 432, (E)-2-{2-[2-(3-chloro-4-fluoro-phenyl)-vinyl]-1H-benzimidazol-5-yl}-benzenesulfonamide] |
| – | 21% | CC(C)(C)C(=O)Nc1ccccc1-c1ccc2[nH]c(/C=C/c3ccc(C(F)(F)F)cc3)nc2c1 [Cpd 460, (E)-2,2-dimethyl-N-(2-{2-[2-(4-trifluoromethyl-phenyl)-vinyl]-1H-benzimidazol-5-yl}-phenyl)-propionamide] |
| 11 nM | 96% | NS(=O)(=O)c1ccccc1-c1ccc2[nH]c(CCc3ccc(F)c(C(F)(F)F)c3)nc2c1 [Cpd 383, 2-{2-[2-(4-fluoro-3-trifluoromethyl-phenyl)-ethyl]-1H-benzimidazol-5-yl}-benzenesulfonamide] |
| 13 nM | 101% | CNS(=O)(=O)c1ccccc1-c1ccc2[nH]c(/C=C/c3ccc(OC(F)(F)F)cc3)nc2c1 [Cpd 345, (E)-N-methyl-2-{2-[2-(4-trifluoromethoxy-phenyl)-vinyl]-1H-benzimidazol-5-yl}-benzenesulfonamide] |
| 10 nM | 95% | NS(=O)(=O)c1ccccc1-c1ccc2[nH]c(CCc3cc(F)cc(C(F)(F)F)c3)nc2c1 [Cpd 421, 2-{2-[2-(3-fluoro-5-trifluoromethyl-phenyl)-ethyl]-1H-benzimidazol-5-yl}-benzenesulfonamide] |
| 45 nM | 97% | NS(=O)(=O)Nc1ccccc1-c1ccc2[nH]c(/C=C/c3ccc(C(F)(F)F)cc3)nc2c1 [Cpd 470, (E)-5-(2-aminosulfonylamino-phenyl)-2-[2-(4-trifluoromethyl-phenyl)-vinyl]-1H-benzimidazole] |
| 12 nM | 100% | NS(=O)(=O)c1ccccc1-c1ccc2[nH]c(/C=C/c3ccc(Cl)c(C(F)(F)F)c3)nc2c1 [Cpd 378, (E)-2-{2-[2-(4-chloro-3-trifluoromethyl-phenyl)-vinyl]-1H-benzimidazol-5-yl}-benzenesulfonamide] |
| 24 nM | 101% | CNS(=O)(=O)c1ccccc1-c1ccc2[nH]c(/C=C/c3cccc(OC(F)(F)F)c3)nc2c1 [Cpd 344, (E)-N-methyl-2-{2-[2-(3-trifluoromethoxy-phenyl)-vinyl]-1H-benzimidazol-5-yl}-benzenesulfonamide] |

The remaining lines, values behind:

| Structure (SMILES) | IC50 | inhibition at 1 µM |
| --- | --- | --- |
| CNS(=O)(=O)c1ccccc1-c1ccc2[nH]c(/C=C/c3ccc(F)cc3)nc2c1 [Cpd 315, (E)-2-{2-[2-(4-fluoro-phenyl)-vinyl]-1H-benzimidazol-5-yl}-N-methyl-benzenesulfonamide] | 11 nM | 100% |
| CNS(=O)(=O)c1ccccc1-c1ccc2[nH]c(/C=C/c3cc(F)cc(C(F)(F)F)c3)nc2c1 [Cpd 322, (E)-2-{2-[2-(3-fluoro-5-trifluoromethyl-phenyl)-vinyl]-1H-benzimidazol-5-yl}-N-methyl-benzenesulfonamide] | 14 nM | 101% |
| CC(C)(C)c1ccc(CCc2nc3cc(-c4cccc(O)c4)ccc3[nH]2)cc1 [Cpd 33, 3-{2-[2-(4-tert-butyl-phenyl)-ethyl]-1H-benzimidazol-5-yl}-phenol] | 1700 nM | – |
| CC(=O)Nc1cccc(-c2ccc3[nH]c(/C=C/c4ccc(F)c(F)c4)nc3c2)c1 [Cpd 25, (E)-N-(3-{2-[2-(3,4-difluoro-phenyl)-vinyl]-1H-benzimidazol-5-yl}-phenyl)-acetamide] | – | 4% |
| NC(=O)c1ccccc1-c1ccc2[nH]c(/C=C/c3ccc(S(=O)(=O)C(F)(F)F)cc3)nc2c1 [Cpd 44, (E)-2-{2-[2-(4-trifluoromethanesulfonyl-phenyl)-vinyl]-1H-benzimidazol-5-yl}-benzamide] | 300 nM | 95% |
| CNS(=O)(=O)c1ccccc1-c1ccc2[nH]c(/C=C/c3cc(C(F)(F)F)ccc3C(F)(F)F)nc2c1 [Cpd 334, (E)-2-{2-[2-(2,5-bis-trifluoromethyl-phenyl)-vinyl]-1H-benzimidazol-5-yl}-N-methyl-benzenesulfonamide] | 178 nM | 94% |
| CNS(=O)(=O)c1ccccc1-c1ccc2[nH]c(/C=C/c3ccc(F)c(F)c3)nc2c1 [Cpd 329, (E)-2-{2-[2-(3,4-difluoro-phenyl)-vinyl]-1H-benzimidazol-5-yl}-N-methyl-benzenesulfonamide] | 27 nM | 98% |
| NS(=O)(=O)c1ccccc1-c1ccc2[nH]c(CCc3ccc(OC(F)(F)F)cc3)nc2c1 [Cpd 129, 2-{2-[2-(4-trifluoromethoxy-phenyl)-ethyl]-1H-benzimidazol-5-yl}-benzenesulfonamide] | 34 nM | 96% |
| CNS(=O)(=O)c1ccccc1-c1ccc2[nH]c(/C=C/c3ccc(Cl)cc3Cl)nc2c1 [Cpd 337, (E)-2-{2-[2-(2,4-dichloro-phenyl)-vinyl]-1H-benzimidazol-5-yl}-N-methyl-benzenesulfonamide] | 14 nM | 96% |
| CNS(=O)(=O)c1ccccc1-c1ccc2[nH]c(/C=C/c3ccc(Cl)c(Cl)c3)nc2c1 [Cpd 316, (E)-2-{2-[2-(3,4-dichloro-phenyl)-vinyl]-1H-benzimidazol-5-yl}-N-methyl-benzenesulfonamide] | 12 nM | 101% |
| OCc1ccccc1-c1cc2nc(/C=C/c3ccc(C(F)(F)F)cc3)[nH]c2cc1F [Cpd 61, (E)-(2-{6-fluoro-2-[2-(4-trifluoromethyl-phenyl)-vinyl]-1H-benzimidazol-5-yl}-phenyl)-methanol] | 75 nM | 100% |
| CNS(=O)(=O)c1ccccc1-c1ccc2[nH]c(/C=C/c3ccc(F)c(C(F)(F)F)c3)nc2c1 [Cpd 331, (E)-2-{2-[2-(4-fluoro-3-trifluoromethyl-phenyl)-vinyl]-1H-benzimidazol-5-yl}-N-methyl-benzenesulfonamide] | 43 nM | 97% |
| CS(=O)(=O)c1ccc(CCc2nc3cc(-c4ccccc4S(N)(=O)=O)ccc3[nH]2)cc1 [Cpd 145, 2-{2-[2-(4-methanesulfonyl-phenyl)-ethyl]-1H-benzimidazol-5-yl}-benzenesulfonamide] | – | 19% |
| CS(=O)(=O)Nc1ccccc1-c1ccc2[nH]c(/C=C/c3ccc(OCC(F)(F)C(F)(F)F)cc3)nc2c1 [Cpd 101, (E)-N-[2-(2-{2-[4-(2,2,3,3,3-pentafluoro-propoxy)-phenyl]-vinyl}-1H-benzimidazol-5-yl)-phenyl]-methanesulfonamide] | > 500 nM | – |
